Test results reported in PMC5987196 (ACS infectious diseases, 2017).
Where two headings read alike, the source gives them in different places.

Key:
[1] = system: E. coli carrying blaADC37 encoded in pBC SK (−); assay: Disk susceptibility assay; type: cell-based, Escherichia coli DH10B; settings: 10 μg of BAI and 10 μg of ceftazidime per disk, zone size
[2] = system: E. coli carrying blaADC37 encoded in pBC SK (−); assay: MIC broth microdilution with ceftazidime plus BATSI; type: cell-based, Escherichia coli DH10B; settings: for MIC broth dilution: CAZ MIC with 10 μg/mL compound, CAZ varied from 0 to 128 μg/mL
ADC-7 [3] = target: T1, ADC-7 (Acinetobacter baumannii, UniProt Q6DRA1); settings: previously reported value for the lead compound; cited from earlier work
[4] = system: AB0057 A. baumannii spp. clinical strain; assay: Disk susceptibility assay; type: cell-based; settings: zone size
ADC-7 [5] = target: T1, ADC-7; assay: Competition kinetics with nitrocefin against ADC-7 β-lactamase; type: biochemical
Pseudomonas PDC-3 = settings: class C enzyme lacking Arg340; cited from earlier work
E. coli AmpC = settings: class C enzyme lacking Arg340; cited from earlier work
[6] = 10 μg of BAI and 10 μg of sulbactam per disk

Row | Compound | disk assay [1] [mm] | MIC broth dilution [2] [µg/mL] | disk assay [4, 6] [mm] | other results
1 | O=C(Cc1cccs1)N[C@@H](Cn1cc(C(=O)O)nn1)B(O)O [3a, (1R)-2-[4-carboxy-[1,2,3]triazol-1-yl]-1-(2-thienylace-tylamino)ethaneboronic acid] | 26 | 1 | 16 | Ki (ADC-7 [3]): 44 nM
2 | O=C(O)Cc1cn(C[C@H](NC(=O)Cc2cccs2)B(O)O)nn1 [3b, (1R)-2-(4-carboxymethyl-[1,2,3]triazol-1-yl)-(2-thienylace-tylamino)ethaneboronic acid] | 18 | 2 | 10 | less activity relative to 3a (ADC-7 [5]; Ki compared with 3a): 3 fold
3 | O=C(Cc1cccs1)N[C@@H](Cn1cc(-c2cccc(C(=O)O)c2)nn1)B(O)O [3c, (1R)-2-[4-(3-carboxyphenyl)-[1,2,3]triazol-1-yl]-1-(2-thienylacetylamino)ethaneboronic acid] | 24 | – | 15 | Ki (ADC-7 [5]): 46 ± 3 nM
4 | O=C(Cc1cccs1)N[C@@H](Cn1cc(-c2nn[nH]n2)nn1)B(O)O [3h, (1R)-2-[4-(2H-tetrazol-5-yl)-[1,2,3]triazol-1-yl]-1-(2-thienylacetylamino)ethaneboronic acid] | 23 | – | 10 | –
5 | O=C(Cc1cccs1)N[C@@H](Cn1cc(-c2cccc(-c3nn[nH]n3)c2)nn1)B(O)O [3j, (1R)-2-[4-(3-(2H-tetrazol-5-yl)phenyl)-[1,2,3]triazol-1-yl]-1-(2-thienylacetylamino)ethaneboronate] | 15 | 8 | 6 | –
6 | CC(C)(O/N=C(\C(=O)N[C@@H]1C(=O)N2C(C(=O)[O-])=C(C[n+]3ccccc3)CS[C@H]12)c1csc(N)n1)C(=O)O [CAZ, ceftazidime, reference compound] | – | – | – | MIC ([2]; Escherichia coli, read-out: MIC broth dilution): 32 µg/mL
7 | O=C(Cc1cccs1)N[C@@H](Cc1cccc(C(=O)O)c1)B(O)O [EC04, reference compound] | 21 | 2 | 11 | Ki (Pseudomonas PDC-3): 220 nM; Ki (E. coli AmpC): 1 nM
8 | O=C(Cc1cccs1)N[C@H](B(O)O)c1cccc(C(=O)O)c1 [SM23, reference compound] | 25 | 1 | 12 | Ki (Pseudomonas PDC-3): 4 nM; Ki (E. coli AmpC): 1 nM
9 | CC1(C)[C@H](C(=O)O)N2C(=O)C[C@H]2S1(=O)=O [SUL, sulbactam, reference compound] | – | – | – | disk assay ([4]; SUL alone, 10 μg): SUL 6 mm; disk assay ([4]; SUL alone, 10 μg, listed as sulbactam): 6 mm
10 | (1R)-2-(4-carboxamido-[1,2,3]triazol-1-yl)-1-(2-thienylacetylamino)ethaneboronate [3d] | 18 | 4 | 10 | –
11 | (1R)-2-(4-idroxycarbamoyl-[1,2,3]triazol-1-yl)-1-(2-thienylacetylamino)ethaneboronic acid [3e] | 16 | 2 | 8 | –
